Test results from patent US20250205341A1, “PROTEIN DELIVERY COMPOSITION CONTAINING BILE SALT AND CATIONIC PEPTIDE AND USE THEREOF” (BION INC., priority 2022, published 2025).
Non-standard residues stand in square brackets, D forms with d. No end group written: not given here.

Experiments:
Assay type in all cases: in vivo
[1] = test system: C57BL/6 mice maintaining normal blood glucose levels; assay: Insulin absorption upon topical (skin) application, blood glucose change; details: 50 μl on shaved skin, with mixture of taurocholate and SEQ6; FIG. 8
Text: Examination was made of the change in insulin absorption upon topical application due to bile salts and/or peptides represented by SEQ ID NO: 1 to SEQ ID NO: 18. The absorption rate of insulin was indicated by measuring the blood glucose-lowering rate after insulin administration. Specifically, C57BL/6 mice maintaining normal blood glucose levels were shaved on the back using a depilatory cream the day before the experiment. On the day of the experiment, the mice were anesthetized by intraperitoneal injection of Ketamine/Xylazine (100 mg/kg and 10 mg/kg, respectively). After confirming stable anesthesia, blood glucose levels were measured using an Accu-Chek glucometer before administering insulin with bile salts and/or cationic peptides. A 50 μl volume of the solution was applied to the shaved skin, and blood glucose changes were measured over time.

[2] = test system: C57BL/6 mice maintaining normal blood glucose levels; assay: Insulin absorption in sublingual mucosal tissue, blood glucose lowering after sublingual administration; details: sublingual 10 μl; 100 mM taurocholate and/or 1 μM SEQ6 with 2U/kg insulin; FIG. 1
Protocol: All cationic peptides used in the experiment were synthesized by AnyGen Co., Ltd. The absorption rate of insulin was indicated by measuring the blood glucose-lowering rate after insulin administration.
Specifically, C57BL/6 mice (Orient Bio, Korea) maintaining normal blood glucose levels were anesthetized by intraperitoneal injection of Ketamine/Xylazine (100 mg/kg and 10 mg/kg, respectively) (BK Pharm, Korea). […] Each experimental group received 10 μl of the solution administered to the sublingual mucosa, and blood glucose changes were measured over time.

[3] = test system: C57BL/6 mice maintaining normal blood glucose levels; assay: Insulin absorption upon oral administration (into the stomach using a zonde), blood glucose lowering; details: 100 mM taurocholate + 2U/kg insulin + 0.1, 1, 10 μM SEQ6 or 1, 10, 100 μM SEQ2; FIG. 2
Protocol: Examination was made of the change in insulin absorption upon oral administration of bile salts and/or peptides represented by SEQ ID NOS: 1 to 18. The absorption rate of insulin was indicated by measuring the blood glucose-lowering rate after insulin administration.
Specifically, C57BL/6 mice maintaining normal blood glucose levels were prepared, and blood glucose levels were measured using an Accu-Chek glucometer before administering insulin with bile salts and/or cationic peptides. Insulin, along with bile salts and/or cationic peptides, was administered directly into the stomach using a zonde, and blood glucose changes were measured over time.

| Substance | blood glucose-lowering effect of insulin upon topical application [1] | blood glucose-lowering rate by insulin (insulin absorption through sublingual mucosal tissue) [2] | insulin absorption (blood glucose-lowering effect) upon oral administration [3] |
| --- | --- | --- | --- |
| insulin: insulin (Humulin N, Korea Lilly, Korea) | excellent blood glucose-lowering effect | – | – |
| rrrrrr ([dR][dR][dR][dR][dR][dR]) [SEQ6] | – | low | significantly increases in a dose-dependent manner |
| RRRRRR [SEQ2] | – | – | significantly increases in a dose-dependent manner |
